Laboratory results taken from ChEMBL document CHEMBL5500349, “Discovery of ganoderic acid A (GAA) PROTACs as MDM2 protein degraders for the treatment of breast cancer” (Eur J Med Chem, 2024).
Active and inactive are the calls of the source. No cut-off for these calls is given here.

Assays:
MDA-MB-231 [1] = experiment: Inhibition of cell migration in human MDA-MB-231 cells at 80 uM incubated for 24 hrs by wound healing assay; assay type: functional, cell-based
MDA-MB-231 [2] = experiment: Induction of apoptosis in human MDA-MB-231 cells assessed as viable cells at 80 uM incubated for 48 hrs by Annexin-V FITC/PI staining based flow cytometry analysis (reference value: 90.3%); assay type: functional; details: read-out: Activity
MDA-MB-231 [3] = experiment: Induction of cell cycle arrest in human MDA-MB-231 cells assessed as increase in number of G2 phase cells at 80 uM after 48 hrs by PI/RNase staining based flow cytometry analysis; assay type: functional
MDA-MB-231 [4] = experiment: Induction of G1/S phase arrest in human MDA-MB-231 cells assessed as increase in p21 mRNA expression at 20 to 80 uM by qRT-PCR analysis; assay type: functional, cell-based; details: dose 20-80 µM
[5] = Toxicity in zebrafish assessed as mortality rate at 6.25 ug/ml; set-up: species or system Danio rerio; details: in vivo, at 6.25 µg/mL, read-out: Activity
MDA-MB-231 [6] = experiment: Antitumor activity against human MDA-MB-231 cells xenografted in zebrafish assessed as inhibition rate at 12.5 ug/ml after 2 days by fluorescence microscopic method; assay type: functional; set-up: scale not given: the % may be the effect or the level left; details: dose 12.5 µg/ml; time 2 day
MDA-MB-231 [7] = experiment: Induction of apoptosis in human MDA-MB-231 cells assessed as early apoptotic cells at 80 uM incubated for 48 hrs by Annexin-V FITC/PI staining based flow cytometry analysis (reference value: 3.37%); assay type: functional
[8] = Toxicity in zebrafish assessed as appearance of toxic phenotype at < 50 ug/ml; set-up: species or system Danio rerio; details: in vivo, dose < 50 µg/ml
[9] = biological target: T1, von Hippel-Lindau disease tumor suppressor/E3 ubiquitin-protein ligase Mdm2 (Homo sapiens, UniProt Q00987+P40337); experiment: Protac activity at VHL/MDM2 in human MDA-MB-231 cells assessed as reduction in MDM2 protein level at 80 uM after 48 hrs by Western blotting analysis; assay type: cell-based; set-up: scale not given: the % may be the effect or the level left
T1 sequence (P40337 whole entry, looked up): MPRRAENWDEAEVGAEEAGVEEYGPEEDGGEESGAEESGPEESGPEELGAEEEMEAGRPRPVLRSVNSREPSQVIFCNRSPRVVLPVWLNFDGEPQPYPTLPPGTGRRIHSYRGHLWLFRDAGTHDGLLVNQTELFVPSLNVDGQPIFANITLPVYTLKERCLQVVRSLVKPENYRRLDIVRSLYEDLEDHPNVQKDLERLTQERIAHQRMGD
T1 sequence (Q00987 whole entry, looked up): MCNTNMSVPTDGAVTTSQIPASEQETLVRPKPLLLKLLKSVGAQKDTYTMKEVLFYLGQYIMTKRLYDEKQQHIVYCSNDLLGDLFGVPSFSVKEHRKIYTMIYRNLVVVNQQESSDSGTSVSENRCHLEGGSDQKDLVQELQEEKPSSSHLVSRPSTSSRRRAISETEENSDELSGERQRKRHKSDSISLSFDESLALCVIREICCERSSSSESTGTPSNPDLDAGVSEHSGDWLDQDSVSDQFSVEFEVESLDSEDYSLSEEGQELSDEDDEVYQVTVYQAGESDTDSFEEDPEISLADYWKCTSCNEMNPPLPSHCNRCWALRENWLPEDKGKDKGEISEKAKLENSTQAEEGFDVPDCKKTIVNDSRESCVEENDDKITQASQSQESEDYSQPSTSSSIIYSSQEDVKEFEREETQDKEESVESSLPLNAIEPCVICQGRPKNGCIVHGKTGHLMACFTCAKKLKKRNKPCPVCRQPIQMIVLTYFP

MDA-MB-231 [10] = experiment: Downregulation of MDM2 expression in human MDA-MB-231 cells at 20 to 80 uM incubated for 48 hrs by immunofluorescence analysis; assay type: functional, cell-based; details: dose 20-80 µM
MDA-MB-231 [11] = experiment: Induction of apoptosis in human MDA-MB-231 cells assessed as early apoptotic cells at 40 uM incubated for 48 hrs by Annexin-V FITC/PI staining based flow cytometry analysis (reference value: 3.37%); assay type: functional
MDA-MB-231 [12] = experiment: Induction of apoptosis in human MDA-MB-231 cells assessed as late apoptotic cells at 40 uM incubated for 48 hrs by Annexin-V FITC/PI staining based flow cytometry analysis (reference value: 6.04%); assay type: functional
MDA-MB-231 [13] = experiment: Upregulation of p21 expression in human MDA-MB-231 cells at 20 to 80 uM incubated for 48 hrs by immunofluorescence analysis; assay type: functional, cell-based; details: dose 20-80 µM
[14] = Toxicity in zebrafish assessed as mortality rate at 100 ug/ml; set-up: species or system Danio rerio; details: in vivo, at 100 µg/mL, read-out: Activity
MDA-MB-231 [15] = experiment: Antiproliferative activity against human MDA-MB-231 cells assessed as cell viability at 100 uM incubated for 48 to 72 hrs by MTT assay; assay type: functional; details: time 48-72 hrs, read-out: Activity
[16] = biological target: T1, von Hippel-Lindau disease tumor suppressor/E3 ubiquitin-protein ligase Mdm2; experiment: Protac activity at VHL/MDM2 in human MDA-MB-231 cells assessed as reduction in MDM2 protein level at 80 uM pretreated with MG-132 for 2 hrs followed by compound addition and measured after 48 hrs by Western blotting analysis; assay type: cell-based
MDA-MB-231 [17] = experiment: Induction of G2/M phase arrest in human MDA-MB-231 cells assessed as decrease in cyclin B1 protein expression at 20 to 80 uM by Western blotting analysis; assay type: functional, cell-based; details: dose 20-80 µM
MDA-MB-231 [18] = experiment: Antitumor activity against human MDA-MB-231 cells xenografted in zebrafish assessed as inhibition rate at 50 ug/ml after 2 days by fluorescence microscopic method; assay type: functional; set-up: scale not given: the % may be the effect or the level left; details: dose 50 µg/ml; time 2 day
[19] = biological target: T1, von Hippel-Lindau disease tumor suppressor/E3 ubiquitin-protein ligase Mdm2; experiment: Protac activity at VHL/MDM2 in human MDA-MB-231 cells assessed as upregulation of p21 level at 20 to 80 uM after 48 hrs by Western blotting analysis; assay type: cell-based; details: dose 20-80 µM
[20] = Toxicity in zebrafish assessed as minimum toxic concentration measured after 2 days; set-up: species or system Danio rerio; details: in vivo, 48 h, time 2 day
MDA-MB-231 [21] = experiment: Induction of apoptosis in human MDA-MB-231 cells assessed as necrotic cells at 80 uM incubated for 48 hrs by Annexin-V FITC/PI staining based flow cytometry analysis (reference value: 0.26%); assay type: functional
MDA-MB-231 [22] = experiment: Induction of apoptosis in human MDA-MB-231 cells assessed as viable cells at 20 uM incubated for 48 hrs by Annexin-V FITC/PI staining based flow cytometry analysis (reference value: 90.3%); assay type: functional; details: read-out: Activity
MDA-MB-231 [23] = experiment: Induction of apoptosis in human MDA-MB-231 cells assessed as viable cells at 40 uM incubated for 48 hrs by Annexin-V FITC/PI staining based flow cytometry analysis (reference value: 90.3%); assay type: functional; details: read-out: Activity
MDA-MB-231 [24] = experiment: Induction of cell cycle arrest in human MDA-MB-231 cells assessed as increase in number of G1 phase cells at 80 uM after 48 hrs by PI/RNase staining based flow cytometry analysis; assay type: functional
MDA-MB-231 [25] = experiment: Antitumor activity against human MDA-MB-231 cells xenografted in zebrafish assessed as inhibition rate at 25 ug/ml after 2 days by fluorescence microscopic method; assay type: functional; set-up: scale not given: the % may be the effect or the level left; details: dose 25 µg/ml; time 2 day
MDA-MB-231 [26] = experiment: Induction of apoptosis in human MDA-MB-231 cells assessed as late apoptotic cells at 20 uM incubated for 48 hrs by Annexin-V FITC/PI staining based flow cytometry analysis (reference value: 6.04%); assay type: functional
MDA-MB-231 [27] = experiment: Induction of apoptosis in human MDA-MB-231 cells assessed as early apoptotic cells at 20 uM incubated for 48 hrs by Annexin-V FITC/PI staining based flow cytometry analysis (reference value: 3.37%); assay type: functional
MDA-MB-231 [28] = experiment: Induction of apoptosis in human MDA-MB-231 cells assessed as late apoptotic cells at 80 uM incubated for 48 hrs by Annexin-V FITC/PI staining based flow cytometry analysis (reference value: 6.04%); assay type: functional
[29] = biological target: T2, E3 ubiquitin-protein ligase Mdm2 (Homo sapiens, UniProt Q00987); experiment: Binding affinity to MDM2 (unknown origin) by SPR assay
Target sequence in this assay (Q00987 whole entry): as the sequence (Q00987 whole entry, looked up) above

[30] = Toxicity in zebrafish assessed as mortality rate at 12.5 ug/ml; set-up: species or system Danio rerio; details: in vivo, at 12.5 µg/mL, read-out: Activity
MDA-MB-231 [31] = experiment: Induction of cell cycle arrest in human MDA-MB-231 cells assessed as decrease in number of S phase cells at 80 uM after 48 hrs by PI/RNase staining based flow cytometry analysis; assay type: functional
[32] = Toxicity in zebrafish assessed as mortality rate at 25 ug/ml; set-up: species or system Danio rerio; details: in vivo, at 25 µg/mL, read-out: Activity
[33] = Toxicity in zebrafish assessed as death at < 50 ug/ml; set-up: species or system Danio rerio; details: in vivo, dose < 50 µg/ml
[34] = biological target: T2, E3 ubiquitin-protein ligase Mdm2; experiment: Binding affinity to MDM2 (unknown origin) assessed as increase in protein stability incubated for 30 mins by CETSA
Target sequence in this assay (Q00987 whole entry, looked up): as above

HepG2 = experiment: Antiproliferative activity against human HepG2 cells assessed as cell viability at 100 uM incubated for 48 to 72 hrs by MTT assay; assay type: functional; details: time 48-72 hrs, read-out: Activity
[35] = Cytotoxicity against mouse HT-22 cells assessed as cell viability at 100 uM incubated for 48 to 72 hrs by MTT assay; assay type: toxicity, cell-based; details: time 48-72 hrs, read-out: Activity
MCF7 = experiment: Antiproliferative activity against human MCF7 cells assessed as cell viability at 100 uM incubated for 48 to 72 hrs by MTT assay; assay type: functional; details: time 48-72 hrs, read-out: Activity
[36] = Toxicity in zebrafish assessed as mortality rate at 50 ug/ml; set-up: species or system Danio rerio; details: in vivo, at 50 µg/mL, read-out: Activity
MDA-MB-231 [37] = experiment: Induction of apoptosis in human MDA-MB-231 cells assessed as reduction in bcl-2/bax ratio at 20 to 40 uM by Western blotting analysis; assay type: functional, cell-based; details: dose 20-40 µM
MDA-MB-231 [38] = experiment: Induction of apoptosis in human MDA-MB-231 cells assessed as necrotic cells at 40 uM incubated for 48 hrs by Annexin-V FITC/PI staining based flow cytometry analysis (reference value: 0.26%); assay type: functional
SJSA-1 = experiment: Antiproliferative activity against human SJSA-1 cells assessed as cell viability at 100 uM incubated for 48 to 72 hrs by MTT assay; assay type: functional; details: time 48-72 hrs, read-out: Activity
MDA-MB-231 [39] = experiment: Inhibition of cell migration in human MDA-MB-231 cells at 80 uM incubated for 48 hrs by wound healing assay; assay type: functional, cell-based
MDA-MB-231 [40] = experiment: Induction of apoptosis in human MDA-MB-231 cells assessed as necrotic cells at 20 uM incubated for 48 hrs by Annexin-V FITC/PI staining based flow cytometry analysis (reference value: 0.26%); assay type: functional
[41] = biological target: T1, von Hippel-Lindau disease tumor suppressor/E3 ubiquitin-protein ligase Mdm2; experiment: Protac activity at VHL/MDM2 in human MDA-MB-231 cells assessed as reduction in MDM2 protein level after 48 hrs by Western blotting analysis; assay type: cell-based; details: dose 20-80 µM

Cc1ncsc1-c1ccc([C@H](C)NC(=O)[C@@H]2C[C@@H](O)CN2C(=O)[C@@H](NC(=O)CCCCc2cn(CCOCCOCCOCCOCCNC(=O)[C@H](C)CC(=O)C[C@@H](C)[C@H]3C[C@H](O)[C@@]4(C)C5=C(C(=O)C[C@]34C)[C@@]3(C)CCC(=O)C(C)(C)[C@@H]3C[C@@H]5O)nn2)C(C)(C)C)cc1
inhibition (MDA-MB-231 [1]): Active | viability at 80 µM (MDA-MB-231 [2]): 41.4% | Activity (MDA-MB-231 [3]): Active | Activity (MDA-MB-231 [4]): Active | mortality at 6.25 ug/ml [5]: 0% | Activity (MDA-MB-231 [6]): 16.8% | Activity (MDA-MB-231 [7]): 47.4% | Activity [8]: Non-Toxic | Activity [9]: 51% | Activity (MDA-MB-231 [10]): Active | Activity (MDA-MB-231 [11]): 7.17% | Activity (MDA-MB-231 [12]): 10.4% | Activity (MDA-MB-231 [13]): Active | mortality at 100 ug/ml [14]: 13% | viability at 100 µM (MDA-MB-231 [15]): 16.9% | Activity [16]: inactive | Activity (MDA-MB-231 [17]): Active | Activity (MDA-MB-231 [18]): 27.2% | Activity [19]: Active | MTC [20]: 50 µg/mL | Activity (MDA-MB-231 [21]): 0.82% | viability at 20 µM (MDA-MB-231 [22]): 90.1% | viability at 40 µM (MDA-MB-231 [23]): 82.3% | Activity (MDA-MB-231 [24]): Active | Activity (MDA-MB-231 [25]): 23.4% | Activity (MDA-MB-231 [26]): 5.34% | Activity (MDA-MB-231 [27]): 4.38% | Activity (MDA-MB-231 [28]): 10.4% | Kd [29]: 38.2 µM | mortality at 12.5 ug/ml [30]: 0% | Activity (MDA-MB-231 [31]): Active | mortality at 25 ug/ml [32]: 0% | Activity [33]: Non-Toxic | Activity [34]: Active | viability at 100 µM (HepG2): 92.9% | viability at 100 µM [35]: 91.3% | viability at 100 µM (MCF7): 30.6% | mortality at 50 ug/ml [36]: 0% | Activity (MDA-MB-231 [37]): Active | Activity (MDA-MB-231 [38]): 0.13% | viability at 100 µM (SJSA-1): 61.3% | inhibition (MDA-MB-231 [39]): Active | Activity (MDA-MB-231 [40]): 0.21% | Activity [41]: Dose-Dependent Effect
